# From patent publication US20230000842A1, “METHODS OF TREATING CARTILAGE DISORDERS THROUGH INHIBITION OF CLK AND DYRK” (SAMUMED, LLC, priority 2019, published 2023)
# How the values were obtained:
# [1] = tested on: Wnt pathway activity (SW480 colon carcinoma cells stably expressing the Sp5-Luc reporter); experiment: Wnt pathway activity screening assay (Sp5-Luc reporter gene assay); conditions: Homo sapiens, SW480
# SIRT1 (pSer27, pSer47) = experiment: Western blot of phospho-SIRT1 with IL1-β; format: cell-based, human; conditions: hMSCs and chondrocytes; in the presence of IL-1β; compared to DMSO
# Method: Cells were plated at 300,000 cells per well in a 6-well plate and following an overnight incubation, treated with DMSO (vehicle control) or indicated compounds and incubated at 37° C. and 5% CO2 for the indicated times. Following treatment, cells were trypsinized and pelleted by centrifugation and washed with PBS. Total protein from the cell pellet was extracted or for fractionation, protein was fractionated into cytoplasmic and nuclear fractions using a Nuclear and Cytoplasmic Extraction Reagents (NE-PER™) kit containing Halt™ protease and phosphatase inhibitors (Thermo Fisher). Protein concentrations were quantified using the Pierce Micro BCA protein assay kit (Thermo Fisher). […] Blots were blocked with non-fat dry milk. Primary antibodies were incubated overnight at 4° C. β-actin and Lamin B1 were used as loading controls (Supplementary Table S2 for primary antibodies). Mouse and rabbit horseradish peroxidase (HRP)-conjugated secondary antibodies were diluted in 5% blocking buffer in TBS-T. Protein-antibody complexes were detected by chemiluminescence using the SuperSignal West Femto Chemiluminescent Substrate (Thermo Fisher) and images were captured with a UVP ChemiDocIt2 camera system (Fisher Scientific, Hampton, N.H.).
# [2] = tested on: NF-κB pathway gene expression in THP1 cells; experiment: qRT-PCR of NF-κB pathway components in THP1 cells stimulated with LPS; format: cell-based
# Method: Fold change relative to unstimulated control is shown (n=3, Mean±95% CI, *p<0.05, **p<0.01, ***p<0.001, one-way ANOVA).
# Total RNA was isolated using a RNAeasy kit (Qiagen) as per the manufacturer's protocol. cDNA was synthesized using the iScript cDNA Synthesis Kit (Bio-Rad). Quantitative real-time PCR was performed using the CFX384 (Bio-Rad) using gene specific SYBR-green or TaqMan™ primers. Relative gene expression was determined by normalizing to housekeeping genes using the ΔΔCt method. Data was collected from at least 3 replicates per assay.
# [3] = tested on: cartilage of ACLT+pMMx rats; experiment: Surgery-induced OA model (ACLT+pMMx), cartilage analysis; format: in vivo, rat; conditions: cartilage at day 35
# Method: Male Sprague Dawley (SD) rats (250 g±30 g) (Charles River, Wilmington, Mass.) were used for all animal studies. All animals were treatment naïve at the start of the studies. Procedures were performed during the hours of 8 am-5 pm on weekdays in a sterile hood in the vivarium. Rats were housed in individual ventilated cages (≤3 per cage) under the following conditions:
# For Nanostring analysis and qPCR: At 10 weeks postnatal age, 32 rats were subjected to severing of the anterior cruciate, medial collateral and medial meniscotibial ligaments (ACLT+pMMx). 8 rats (male, 10 weeks old) were untreated controls (Sham). Each rat was anesthetized with an isoflurane/O2 mixture until the flexor withdrawal reflex was abolished. The surgeon wore a face mask, hair net, lab coat and shoe covers, and gloves that were disinfected with betadine or chlorhexidine. Surgery tools were sterilized with an autoclave or bead sterilizer and disinfected between animals using a bead sterilizer. After being shaved and disinfected with betadine or chlorhexidine solution, the right knee joint was exposed through a medial para-patellar approach. The medical collateral ligament (MCL) was transected with surgical scalpels. The patella was dislocated laterally, and the knee was placed in full flexion followed by anterior cruciate ligament (ACL) transection with surgical scalpels. The medial meniscus (MM) was also partially transected. After surgery, the joint surface was washed with sterile saline solution, and the capsule was sutured using Vicryl 4-0 (Ethicon, Edinburgh, UK) absorbable suture. The skin was closed with 9 mm auto clips (Mikron precision INC, Gardena Calif.). Buprenorphine (0.5 mg/kg) was administered immediately after the surgery and daily for one-week post-surgery. All the surgery, rats were allowed to move freely in plastic cages until their necropsies. […] At the indicated timepoints, animals were sacrificed using Carbon dioxide (CO2). Cartilage was isolated, flash frozen in liquid Nitrogen and stored at −80° C. until processing for RNA extraction.
# At the indicated timepoints, animals were sacrificed using Carbon dioxide (CO2). Cartilage was isolated, flash frozen in liquid Nitrogen and stored at −80° C. until processing for protein extraction.
# [4] = single IA injection 0.1 μg, 0.3 μg, 1 μg one-week post ACLT+pMMx, compared with vehicle
smiles,measurement,setting,value
CC(C)CC(=O)Nc1cncc(-c2ccc3[nH]nc(-c4nc5c(-c6cccc(F)c6)cncc5[nH]4)c3c2)c1 [compound 123],EC50,[1],3.4 nM
same,"phosphorylation of SIRT1 (pSer27, pSer47)","SIRT1 (pSer27, pSer47)",dose-dependently and more potently inhibited
same,"LPS-stimulated gene expression of NF-κB components (RELA, RELB)",[2],inhibited
same,"NF-κB inhibitors (NFKBIA, NFKBIB, IKKβ, IKKγ) expression",[2],without effects
same,"expression of NF-κB pathway genes (NFKB1, NFKB2, RELA, RELB and BCL3)",[2],inhibited
same,number of Wnt pathway genes with decreased expression,"[3]; ACLT+pMMx rats, Nanostring",19 genes
same,number of Wnt pathway genes with increased expression,"[3]; ACLT+pMMx rats, Nanostring",at least 8 genes
same,"CLK2, DYRK1A, SRSF1, SRSF5, and SRSF6 expression",[3]; [4],decreased
same,"phospho-SRSF, SRSF1, AXIN2, TCF7, phospho-SIRT1, phospho-FOXO1, and phospho-STAT3 (Western blot)",[3]; [4],decreased
